Data on 25 compounds can be found in patent US7709478B2, “Acylated 6,7,8,9-tetrahydro-5H-benzocycloheptenyl amines and their use as pharmaceutical agents” (sanofi-aventis Deutschland GmbH, priority 2001, dated 2010).

The term EC50 denotes the concentration giving half of the maximal effect.

Where a name gives a salt, the structure may show the parent alone.

The test addresses eNOS promoter. Nature of the test: Activation of eNOS transcription (eNOS promoter-luciferase reporter gene assay). Format: cell-based, human. Particulars: 18 h incubation; for EC50: EC50 of transcription induction ratio vs compound concentration, determined graphically, human endothelial cell line stably transfected with eNOS promoter-luciferase construct; for TIR(max) / maximal fold induction: maximum transcription induction ratio (luciferase activity with compound / solvent alone), human endothelial cell line with eNOS promoter-luciferase construct; for maximal fold induction: read-out: TIR(max). Here is the method: Measurement of Activation of eNOS Transcription
Activation of eNOS transcription was measured as described in detail in Li et al. “Activation of protein kinase C alpha and/or epsilon enhances transcription of the human endothelial nitric oxide synthase gene”, Mol. Pharmacol. 1998; 53: 630-637.
Briefly, a 3.5 kB long fragment 5′ of the starting codon of the eNOS gene was cloned, sequenced and cloned in firefly luciferase expression plasmids to monitor activation of the eNOS promoter by reporter gene activity. A human endothelial cell line stable transfected and expressing this promoter-reporter construct was used for compound testing. Cells were incubated for 18 h with compounds.
All compounds were dissolved in sterile DMSO. A final concentration of 0.5% DMSO in complete medium was allowed. Induction of reporter gene expression in these cells was measured using a standard luciferase assay system (Promega, Cat. No E150) according to the manufacturer's instructions. Luciferase induction in cells incubated with compounds were compared to those incubated with solvent alone. The ratio of both activities (transcription induction ratio, TIR) was plotted as a function of compound concentration. Typically, TIR values started at low concentrations at a ratio of 1, indicating no compound effect, and extended up to a maximum TIR value TIR(max) which indicates the increase of the eNOS transcription. EC50 values of transcription induction ratios as a function of compound concentration were determined graphically.

Regarding `CCOc1ccc(C(=O)NC2CCCc3ccccc3C2)cc1` (centres unmarked) [Compound 5, 4-ETHOXY-N-(6,7,8,9-TETRARYDRO-5H-BENZOCYCLOHEPTEN-6-YL)-BENZAMIDE], the EC50 is < 80 nM and the “TIR(max)” value was 3.0.

On to `O=C(NC1CCCc2ccccc2C1)c1ccc(F)cc1F` (centres unmarked) [Compound 6, 2,4-DIFLUORO-N-(6,7,8,9-TETRAHYDRO-5H-BENZOCYCLOHEPTEN-6-YL)-BENZAMIDE], for which the EC50 is < 80 nM and the maximal fold induction was 3.

`O=C(NC1CCCc2ccccc2C1)c1ccc(Cl)nc1` (centres unmarked) [Compound 10, 6-CHLORO-N-(6,7,8,9-TETRAHYDRO-5H-BENZOCYCLOHEPTEN-6-YL)-NICOTINAMIDE]: the EC50 came to 256 nM and the maximal fold induction was determined as 3.

Take `Cc1ccc(C(=O)NC2CCCc3ccccc3C2)c(O)n1` (centres unmarked) [Compound 11, 2-HYDROXY-6-METHYL-N-(6,7,8,9-TETRAHYDRO-5H-BENZOCYCLOHEPTEN-6-YL)-NICOTINAMIDE]: the EC50 was determined as 2100 nM and the maximal fold induction worked out at 2.

For the compound `O=C(NC1CCCc2ccccc2C1)c1cccc2[nH]ccc12` (centres unmarked) [Compound 12, 1H—INDOLE-4-CARBOXYLIC ACID (6,7,8,9-TETRAHYDRO-5H-BENZOCYCLOHEPTEN-6-YL)-AMIDE], the EC50 came to 136 nM and the maximal fold induction amounted to 3.

Consider `O=C(NC1CCCc2ccccc2C1)c1ccc2[nH]nnc2c1` (centres unmarked) [Compound 13, 1H-BENZOTRIAZOLE-5-CARBOXYLIC ACID (6,7,8,9-TETRAHYDRO-5H-BENZOCYCLOHEPTEN-6-YL)-AMIDE], for which the EC50 was 8800 nM and the maximal fold induction turned out to be 2.

Regarding `O=C(NC1CCCc2ccccc2C1)c1cnn(-c2ccc(Cl)cc2)c1C(F)(F)F` (centres unmarked) [Compound 14, 1-(4-CHLORO-PHENYL)-5-TRIFLUOROMETHYL-1H-PYRAZOLE-4-CARBOXYLIC ACID (6,7,8,9-TETRAHYDRO-5H-BENZOCYCLOHEPTEN-6-YL)-AMIDE], the concentration giving a half-maximal response (EC50) is 1200 nM and the maximal fold induction was 1.7.

On to `COc1ccc(C(=O)NC2CCCc3ccccc3C2)c(OC)n1` (centres unmarked) [Compound 15, 2,6-DIMETHOXY-N-(6,7,8,9-TETRAHYDRO-5H-BENZOCYCLOHEPTEN-6-YL)-NICOTINAMIDE], for which the EC50 is 779 nM and the maximal fold induction is 3.1.

Turning to `Cc1ccc(C(=O)NC2CCCc3ccccc3C2)c(Cl)n1` (centres unmarked) [Compound 16, 2-CHLORO-6-METHYL-N-(6,7,8,9-TETRAHYDRO-5H-BENZOCYCLOHEPTEN-6-YL)-NICOTINAMIDE], the half-maximal effective concentration (EC50) was found to be 38 nM and the maximal fold induction came to 2.9.

Regarding `O=C(NC1CCCc2ccccc2C1)c1ccc2cc[nH]c2c1` (centres unmarked) [Compound 20, 1H—INDOLE-6-CARBOXYLIC ACID (6,7,8,9-TETRAHYDRO-5H-BENZOCYCLOHEPTEN-6-YL)-AMIDE], the EC50 worked out at 16 nM and the maximal fold induction came to 3.1.

On to `N#Cc1ccc(C(=O)NC2CCCc3ccccc3C2)cn1` (centres unmarked) [Compound 21, 6-CYANO-N-(6,7,8,9-TETRAHYDRO-5H-BENZOCYCLOHEPTEN-6-YL)-NICOTINAMIDE], for which the EC50 is 8200 nM and the maximal fold induction came to 2.6.

For `O=C(NC1CCCc2ccccc2C1)c1cccc2snnc12` (centres unmarked) [Compound 22, BENZO[1,2,3]THIADIAZOLE-4-CARBOXYLIC ACID-N-(6,7,8,9-TETRAHYDRO-5H-BENZOCYCLOHEPTEN-6-YL)-AMIDE], the EC50 worked out at 83 nM and the maximal fold induction was 3.1.

In the case of `Nc1ncccc1C(=O)NC1CCCc2ccccc2C1` (centres unmarked) [Compound 25, 2-AMINO-N-(6,7,8,9-TETRAHYDRO-5H-BENZOCYCLOHEPTEN-6-YL)-NICOTINAMIDE HYDROCHLORIDE], the EC50 amounted to 31 nM and the maximal fold induction is 3.1.

For the compound `Cc1c(C(=O)NC2CCCc3ccccc3C2)cnn1-c1ccccc1` (centres unmarked) [Compound 30, 5-METHYL-1-PHENYL-1H-PYRAZOLE-4-CARBOXYLIC ACID (6,7,8,9-TETRARYDRO-5H-BENZOCYCLOHEPTEN-6-YL)-AMIDE], the EC50 was found to be 20 nM and the “TIR(max)” value is listed as 3.5.

As for `Cc1nc2cc(C(=O)N[C@H]3CCCc4ccccc4C3)ccc2[nH]1` [Compound 36, (S)-2-METHYL-1H-BENZOIMIDAZOLE-5-CARBOXYLIC ACID (6,7,8,9-TETRAHYDRO-5H-BENZOCYCLOHEPTEN-6-YL)-AMIDE HYDROCHLORIDE], the EC50 is 50 nM and the maximal fold induction was 3.3.

For the compound `Cc1cc(C)c(C(=O)NC2CCCc3ccccc3C2)c(N)n1` (centres unmarked) [Compound 56, 2-AMINO-4,6-DIMETHYL-N-(6,7,8 9-TETRAHYDRO-5H-BENZOCYCLOHEPTEN-6-YL)-NICOTINAMIDE], the 50% effective concentration (EC50) was determined as 168 nM and the “TIR(max)” value is given as 3.

Consider `Cc1nc(C)c(C(=O)NC2CCCc3ccccc3C2)o1` (centres unmarked) [Compound 58, 2,4-DIMETHYL-OXAZOLE-5-CARBOXYLIC ACID (6,7,8,9-TETRAHYDRO-5H-BENZOCYCLOHEPTEN-6-YL)-AMIDE], for which the EC50 amounted to 19000 nM and the maximal fold induction stood at 2.5.

On to `Cc1cnc(C(=O)NC2CCCc3ccccc3C2)c(N)n1` (centres unmarked) [Compound 59, 3-AMINO-5-METHYL-PYRAZINE-2-CARBOXYLIC ACID (6,7,8,9-TETRAHYDRO-5H-BENZOCYCLOHEPTEN-6-YL)-AMIDE], for which the EC50 worked out at 19 nM and the maximal fold induction amounted to 3.2.

`Nc1c(C(=O)NC2CCCc3ccccc3C2)cnn1-c1ccccc1` (centres unmarked) [Compound 61, 5-AMINO-1-PHENYL-1H-PYRAZOLE-4-CARBOXYLIC ACID (6,7,8,9-TETRAHYDRO-5H-BENZOCYCLOHEPTEN-6-YL)-AMIDE]: the EC50 stood at 2300 nM and the maximal fold induction is 3.4.

In the case of `O=C(NC1CCCc2ccccc2C1)c1cnc(N2CCOCC2)nc1` (centres unmarked) [Compound 64, 2-MORPHOLIN-4-YL-PYRIMIDINE-5-CARBOXYLIC ACID (6,7,8,9-TETRAHYDRO-5H-BENZOCYCLOHEPTEN-6-YL)-AMIDE], the EC50 was 16000 nM and the maximal fold induction was determined as 3.1.

With `O=C(NC1CCCc2ccccc2C1)c1ccc(Cl)nc1Cl` (centres unmarked) [Compound 70, 2,6-DICHLORO-N-(6,7,8,9-TETRAHYDRO-5H-BENZOCYCLOHEPTEN-6-YL)-NICOTINAMIDE], the EC50 came out at 2000 nM and the maximal fold induction turned out to be 3.1.

Regarding `Cc1nc(N)c(C(=O)NC2CCCc3ccccc3C2)nc1C` (centres unmarked) [Compound 72, 3-AMINO-5,6-DIMETHYL-PYRAZINE-2-CARBOXYLIC ACID (6,7,8,9-TETRAHYDRO-5H-BENZOCYCLOHEPTEN-6-YL)-AMIDE], the EC50 is 71 nM and the maximal fold induction was 3.1.

As to `CCSc1ncc(C(=O)NC2CCCc3ccccc3C2)c(N)n1` (centres unmarked) [Compound 74, 4-AMINO-2-ETHYLSULFANYL-PYRIMIDINE-5-CARBOXYLIC ACID (6,7,8,9-TETRAHYDRO-5H-BENZOCYCLOHEPTEN-6-YL)-AMIDE], the EC50 came out at 34000 nM and the maximal fold induction is 3.1.

With `CNc1cncc(C(=O)NC2CCCc3ccccc3C2)n1` (centres unmarked) [Compound 76, 6-METHYLAMINO-PYRAZINE-2-CARBOXYLIC ACID (6,7,8,9-TETRAHYDRO-5H-BENZOCYCLOHEPTEN-6-YL)-AMIDE], the EC50 is 572 nM and the maximal fold induction was found to be 3.1.

On to `CN(C)c1ccc(C(=O)NC2CCCc3ccccc3C2)cn1` (centres unmarked) [Compound 81, 6-DIMETHYLAMINO-N-(6,7,8,9-TETRAHYDRO-5H-BENZOCYCLOHEPTEN-6-YL)-NICOTINAMIDE], for which the EC50 was determined as 53 nM and the maximal fold induction was 3.3.
